Measured values reported in patent US20060069132A1, “Azolecarboxamide herbicides” (priority 2004, published 2006).

What was measured:
[1] = system: velvetleaf; experiment: Test C pre-/postemergence herbicide test; format: in vivo, Abutilon theophrasti; settings: for Velvetleaf plant response rating: 500 g ai/ha
Method in brief: (§1)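 Pre/post spray; non-phytotoxic solvent + surfactant. Post-timing 1–4 leaves, 2–18 cm. Read-out: visual % control vs untreated, day 12–14, greenhouse.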

[2] = system: morningglory; experiment: Test C pre-/postemergence herbicide test; format: in vivo, Ipomoea coccinea; design: key to Plant response rating, Morningglory: 0 = no effect, 100 = complete control; settings: for Morningglory plant response rating: 500 g ai/ha
Method in brief: as §1

[3] = system: corn; experiment: Test C pre-/postemergence herbicide test; format: in vivo, Zea mays; settings: for Corn plant response rating: 500 g ai/ha
Method in brief: as §1

[4] = system: Surinam grass; experiment: Test C pre-/postemergence herbicide test; format: in vivo, Urochloa decumbens; settings: for Surinam Grass plant response rating: 500 g ai/ha
Method in brief: as §1

[5] = system: barnyardgrass; experiment: Test A pre-/postemergence herbicide test; format: in vivo, Echinochloa crus-galli
Method in brief: (§2)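 Greenhouse injury scoring (0–100, complete control = 100) at approximately ten days follows simultaneous pre- and postemergence application. Soil received a directed spray after seeding; seedlings of 2–10 cm at the one- to two-leaf stage were sprayed to runoff.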

[6] = system: large crabgrass; experiment: Test A pre-/postemergence herbicide test; format: in vivo, Digitaria sanguinalis
Method in brief: as §2

[7] = system: kochia; experiment: Test C pre-/postemergence herbicide test; format: in vivo, Kochia scoparia; settings: for Kochia plant response rating: 500 g ai/ha
Method in brief: as §1

[8] = system: velvetleaf; experiment: Test B pre-/postemergence herbicide test; format: in vivo, Abutilon theophrasti; settings: for Velvetleaf plant response rating: postemergence, visual rating
Method in brief: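 Response was scored visually 13 to 15 days after treatment against untreated greenhouse controls, 0 meaning no effect and 100 complete control. Formulations (solvent mixture plus surfactant) went onto soil after planting, onto foliage of 1- to 4-leaf plants, and onto 2-leaf plants in a flooded paddy set including rice and barnyardgrass.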

[9] = 125 g ai/ha, scale 0 (no effect) to 100 (complete control), visual, 12 to 14 days, preemergence
[10] = Postemergence, 250 g ai/ha, scale 0 to 100, 0 no effect, 100 complete control
[11] = Preemergence, scale 0 to 100, 0 no effect, 100 complete control
[12] = postemergence, 125 g ai/ha, scale 0 to 100
[13] = 250 g ai/ha, scale 0 to 100 (0 no effect, 100 complete control), visual, 12 to 14 days, preemergence
[14] = Postemergence, 500 g ai/ha, 0 to 100 scale, 0 no effect, 100 complete control
[15] = Postemergence, 2000 g ai/ha, 0 to 100 scale, 0 no effect, 100 complete control
[16] = Preemergence, 500 g ai/ha, visual rating, 0 to 100 scale (0 no effect, 100 complete control)
[17] = Preemergence, 2000 g ai/ha, visual rating, 0 to 100 scale (0 no effect, 100 complete control)
[18] = 500 g ai/ha, visual rating 0-100, 0 no effect, 100 complete control, preemergence
[19] = 125 g ai/ha, scale 0 (no effect) to 100 (complete control)
[20] = 500 g ai/ha, scale 0 (no effect) to 100 (complete control)
[21] = preemergence, 125 g ai/ha, 0 to 100 scale, 0 is no effect, 100 is complete control
[22] = 62 g ai/ha, preemergence, scale 0 to 100
[23] = 250 g ai/ha, scale 0-100, preemergence
[24] = preemergence, 500 g ai/ha, visual injury, 0 to 100 scale (0 no effect, 100 complete control)
[25] = 31 g ai/ha, preemergence, scale 0 to 100
[26] = postemergence, 62 g ai/ha, scale 0 to 100

## CCn1nc(C(C)(C)C)cc1C(=O)Nc1cccc(SC(F)(F)F)c1 [Compound 130]
[1]; [9]
  Plant response rating, Velvetleaf: 10
[1]; Postemergence, scale 0 to 100
  Velvetleaf plant response rating: 85
[1]; [10]
  Plant response rating, Velvetleaf: 40
[1]; [11]
  Velvetleaf plant response rating: 100
[1]; [12]
  Plant response rating, Velvetleaf: 30
[2]; 62 g ai/ha, preemergence
  Plant response rating (0 = no effect, 100 = complete control), Morningglory: 0
[2]; [9]
  Plant response rating, Morningglory: 0
[2]; Postemergence, scale 0 to 100
  Morningglory plant response rating: 100
[2]; [10]
  Plant response rating, Morningglory: 80
[2]; [11]
  Morningglory plant response rating: 30
[2]; [12]
  Plant response rating, Morningglory: 40
[3]; 62 g ai/ha, preemergence
  Plant response rating (0 = no effect, 100 = complete control), Corn: 0
[3]; [9]
  Plant response rating, Corn: 5
[3]; [13]
  Plant response rating, Corn: 5
[3]; Postemergence, scale 0 to 100
  Corn plant response rating: 50
[3]; [10]
  Plant response rating, Corn: 45
[3]; [11]
  Corn plant response rating: 10
[3]; [12]
  Plant response rating, Corn: 45
[4]; 62 g ai/ha, preemergence
  Plant response rating (0 = no effect, 100 = complete control), Surinam Grass: 5
[4]; [9]
  Plant response rating, Surinam Grass: 5
[4]; Postemergence, scale 0 to 100
  Surinam Grass plant response rating: 60
[4]; [10]
  Plant response rating, Surinam Grass: 30
[4]; [11]
  Surinam Grass plant response rating: 60
[4]; [12]
  Plant response rating, Surinam Grass: 10
[5]; [14]
  Barnyardgrass plant response rating: 20
[5]; [15]
  Plant response rating, Barnyardgrass: 20
[5]; [16]
  Barnyardgrass plant response rating: 40
[5]; [17]
  Barnyardgrass plant response rating: 30
[6]; [14]
  Crabgrass, Large plant response rating: 20
[6]; [15]
  Plant response rating, Crabgrass, Large: 20
[6]; [16]
  Crabgrass, Large plant response rating: 45
[6]; [17]
  Crabgrass, Large plant response rating: 60
[7]; 62 g ai/ha, preemergence
  Plant response rating (0 = no effect, 100 = complete control), Kochia: 0
[7]; [9]
  Plant response rating, Kochia: 0
[7]; Postemergence, scale 0 to 100
  Kochia plant response rating: 85
[7]; [10]
  Plant response rating, Kochia: 70
[7]; [11]
  Kochia plant response rating: 100
[7]; [12]
  Plant response rating, Kochia: 30
[8]; [18]
  Plant response rating, Velvetleaf: 90
[8]; [19]
  Velvetleaf plant response rating: 70
[8]; [20]
  Velvetleaf plant response rating: 70
[8]; [21]
  Plant response rating, Velvetleaf: 10

## CCNC(=O)c1cccc(NC(=O)c2sc(C(C)(C)C)nc2C)c1 [Compound 198]
[1]; [22]
  Plant response rating, Velvetleaf: 5
[1]; [9]
  Plant response rating, Velvetleaf: 80
[1]; [23]
  Plant response rating, Velvetleaf: 80
[1]; [11]
  Velvetleaf plant response rating: 100
[2]; [22]
  Plant response rating, Morningglory: 10
[2]; [9]
  Plant response rating, Morningglory: 70
[2]; [23]
  Plant response rating, Morningglory: 85
[2]; [11]
  Morningglory plant response rating: 85
[3]; [22]
  Plant response rating, Corn: 0
[3]; [9]
  Plant response rating, Corn: 0
[3]; [23]
  Plant response rating, Corn: 0
[3]; [11]
  Corn plant response rating: 0
[4]; [22]
  Plant response rating, Surinam Grass: 0
[4]; [9]
  Plant response rating, Surinam Grass: 10
[4]; [23]
  Plant response rating, Surinam Grass: 30
[4]; [11]
  Surinam Grass plant response rating: 100
[5]; [14]
  Barnyardgrass plant response rating: 45
[5]; [15]
  Plant response rating, Barnyardgrass: 80
[5]; [17]
  Barnyardgrass plant response rating: 90
[5]; [24]
  Barnyardgrass plant response rating: 55
[6]; [14]
  Crabgrass, Large plant response rating: 20
[6]; [15]
  Plant response rating, Crabgrass, Large: 65
[6]; [17]
  Crabgrass, Large plant response rating: 90
[6]; [24]
  Crabgrass, Large plant response rating: 80
[7]; [22]
  Plant response rating, Kochia: 50
[7]; [9]
  Plant response rating, Kochia: 80
[7]; [23]
  Plant response rating, Kochia: 100
[7]; [11]
  Kochia plant response rating: 100
[8]; 125 g ai/ha, 0 = no effect, 100 = complete control, preemergence
  Velvetleaf plant response rating (0 to 100 scale): 0
[8]; [18]
  Plant response rating, Velvetleaf: 60
[8]; [19]
  Velvetleaf plant response rating: 20
[8]; [20]
  Velvetleaf plant response rating: 20

## C=Cn1nc(C(C)(C)C)cc1C(=O)Nc1cccc(C(C)=NO)c1 [Compound 114]
[1]; [25]
  Plant response rating, Velvetleaf: 0
[1]; [9]
  Plant response rating, Velvetleaf: 30
[1]; [10]
  Plant response rating, Velvetleaf: 80
[1]; [12]
  Plant response rating, Velvetleaf: 70
[1]; [26]
  Plant response rating, Velvetleaf: 60
[2]; [25]
  Plant response rating, Morningglory: 40
[2]; [9]
  Plant response rating, Morningglory: 60
[2]; [12]
  Plant response rating, Morningglory: 30
[2]; [26]
  Plant response rating, Morningglory: 10
[3]; [25]
  Plant response rating, Corn: 10
[3]; 62 g ai/ha, preemergence
  Plant response rating (0 = no effect, 100 = complete control), Corn: 10
[3]; [9]
  Plant response rating, Corn: 10
[3]; [13]
  Plant response rating, Corn: 10
[3]; [10]
  Plant response rating, Corn: 40
[3]; [12]
  Plant response rating, Corn: 30
[3]; [26]
  Plant response rating, Corn: 30
[4]; [25]
  Plant response rating, Surinam Grass: 10
[4]; 62 g ai/ha, preemergence
  Plant response rating (0 = no effect, 100 = complete control), Surinam Grass: 10
[4]; [9]
  Plant response rating, Surinam Grass: 10
[4]; [10]
  Plant response rating, Surinam Grass: 20
[4]; [12]
  Plant response rating, Surinam Grass: 10
[4]; [26]
  Plant response rating, Surinam Grass: 10
[5]; [14]
  Barnyardgrass plant response rating: 30
[5]; [15]
  Plant response rating, Barnyardgrass: 40
[5]; [16]
  Barnyardgrass plant response rating: 25
[5]; [17]
  Barnyardgrass plant response rating: 40
[6]; [14]
  Crabgrass, Large plant response rating: 40
[6]; [15]
  Plant response rating, Crabgrass, Large: 60
[6]; [16]
  Crabgrass, Large plant response rating: 40
[6]; [17]
  Crabgrass, Large plant response rating: 85
[7]; [25]
  Plant response rating, Kochia: 90
[7]; 62 g ai/ha, preemergence
  Plant response rating (0 = no effect, 100 = complete control), Kochia: 90
[7]; [9]
  Plant response rating, Kochia: 90
[7]; [10]
  Plant response rating, Kochia: 100
[7]; [12]
  Plant response rating, Kochia: 80
[7]; [26]
  Plant response rating, Kochia: 80
[8]; [18]
  Plant response rating, Velvetleaf: 60
[8]; Postemergence, 500 g ai/ha, visual rating after 13 to 15 days, scale 0 (no effect) to 100 (complete control)
  Plant response rating, Velvetleaf: 60
[8]; [19]
  Velvetleaf plant response rating: 50
[8]; [21]
  Plant response rating, Velvetleaf: 40
